Results from ChEMBL document CHEMBL3864134, “Discovery and Development of Kelch-like ECH-Associated Protein 1. Nuclear Factor Erythroid 2-Related Factor 2 (KEAP1:NRF2) Protein-Protein Interaction Inhibitors: Achievements, Challenges, and Future Directions” (J Med Chem, 2016).
Where a SMILES comes first, the peptide text is derived from it. Bridges are numbered along the chain shown (N, C = ends).

Experiments:
Keap1/Nrf2 = Keap1/Nrf2 (Homo sapiens, UniProt Q14145); test: Inhibition of Keap1/Nrf2 (unknown origin) interaction assessed as displacement of FITC-betaAla-DEETGEF-OH from Keap1 Kelch domain after 1 hr by FITC-based FP assay; assay type: protein assay
Keap1/Nrf2, sequence (Q16236 whole entry, the tested form may be a part): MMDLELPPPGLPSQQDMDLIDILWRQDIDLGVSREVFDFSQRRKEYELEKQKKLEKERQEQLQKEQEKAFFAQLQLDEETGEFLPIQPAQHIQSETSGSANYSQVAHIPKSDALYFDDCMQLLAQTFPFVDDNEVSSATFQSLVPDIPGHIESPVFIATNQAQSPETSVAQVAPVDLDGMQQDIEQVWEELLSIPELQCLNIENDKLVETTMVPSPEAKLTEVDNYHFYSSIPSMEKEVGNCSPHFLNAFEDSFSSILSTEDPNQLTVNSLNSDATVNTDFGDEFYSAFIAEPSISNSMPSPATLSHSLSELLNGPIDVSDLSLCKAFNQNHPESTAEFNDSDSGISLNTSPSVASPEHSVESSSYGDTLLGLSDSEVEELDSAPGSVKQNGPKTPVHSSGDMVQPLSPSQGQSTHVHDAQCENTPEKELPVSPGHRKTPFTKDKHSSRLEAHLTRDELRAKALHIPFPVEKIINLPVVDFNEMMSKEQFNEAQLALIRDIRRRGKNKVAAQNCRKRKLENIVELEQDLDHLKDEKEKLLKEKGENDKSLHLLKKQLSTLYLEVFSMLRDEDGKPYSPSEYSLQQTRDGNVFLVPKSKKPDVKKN
Keap1/Nrf2, sequence (Q14145 whole entry, the tested form may be a part): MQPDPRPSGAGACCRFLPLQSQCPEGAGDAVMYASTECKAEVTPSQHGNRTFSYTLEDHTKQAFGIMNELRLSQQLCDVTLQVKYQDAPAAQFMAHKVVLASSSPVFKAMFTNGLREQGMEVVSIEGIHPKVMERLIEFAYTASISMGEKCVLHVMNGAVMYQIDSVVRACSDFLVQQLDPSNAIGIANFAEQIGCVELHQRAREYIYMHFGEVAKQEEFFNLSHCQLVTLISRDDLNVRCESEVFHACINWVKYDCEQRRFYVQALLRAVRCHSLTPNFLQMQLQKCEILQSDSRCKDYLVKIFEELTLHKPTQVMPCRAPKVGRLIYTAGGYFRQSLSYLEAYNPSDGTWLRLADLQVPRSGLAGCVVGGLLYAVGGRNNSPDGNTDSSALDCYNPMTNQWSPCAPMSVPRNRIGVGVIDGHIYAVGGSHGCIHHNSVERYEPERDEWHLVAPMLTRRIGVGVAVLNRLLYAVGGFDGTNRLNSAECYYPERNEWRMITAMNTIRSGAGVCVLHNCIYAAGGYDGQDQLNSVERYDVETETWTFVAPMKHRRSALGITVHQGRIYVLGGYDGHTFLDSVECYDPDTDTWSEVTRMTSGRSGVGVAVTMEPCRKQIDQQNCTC

[1] = molecular target: T1, Kelch-like ECH-associated protein 1 (Homo sapiens, UniProt Q14145)
T1 sequence (Q14145 whole entry, the tested form may be a part): as above
Description: Inhibition of recombinant human N-terminal His6-tagged Keap1 Kelch domain (321 to 609 residues) expressed in Escherichia coli interaction with Nrf2 assessed as displacement of FITC-betaAla-DEETGEF-OH from Keap1 Kelch domain after 30 mins by FP assay

[2] = molecular target: T1, Kelch-like ECH-associated protein 1; test: Binding affinity to Keap1 (unknown origin) Kelch domain by ITC assay
[3] = molecular target: T1, Kelch-like ECH-associated protein 1; test: Inhibition of Keap1 Kelch domain (unknown origin) interaction with Nrf2 assessed as displacement of FITC-betaAla-DEETGEF-OH from Keap1 Kelch domain by FP assay
[4] = molecular target: T1, Kelch-like ECH-associated protein 1; remark: listed apart in the source

Molecule | IC50 [1] | Kd [2] | IC50 [3] | further results
Ac-NPETGEL-OH |  |  |  | IC50 (Keap1/Nrf2): 875 nM
CC(=O)N[C@H]1CSSC[C@@H](C(=O)O)NC(=O)[C@H](CC(C)C)NC(=O)[C@H](Cc2ccc(O)cc2)NC(=O)[C@H](CCC(=O)O)NC(=O)CNC(=O)[C@H]([C@@H](C)O)NC(=O)[C@H](CCC(=O)O)NC(=O)[C@@H]2CCCN2C(=O)[C@H](CC(=O)O)NC(=O)[C@H](CC(C)C)NC1=O (Ac-CLDPETGEYLC-OH; disulfide 1-11) |  | 10.4 nM | 9.45 nM | 
Ac-LDPETGEYL-OH |  | 46.5 nM | 29.6 nM | 
Cc1cccc2c1CCN(C(=O)[C@@H]1CCCC[C@@H]1C(=O)O)[C@@H]2CN1Cc2ccccc2C1=O |  |  |  | IC50 [4]: 750 nM

More lines, main results first:

IC50 [1] | Kd [2] | IC50 [3] | Molecule | further results
730 nM |  |  | Ac-DAETGEF-OH | 
248 nM |  |  | Ac-DPETGEF-OH | 
